{"source": "the kinase profiling compilation of Christmann-Franck et al. (2016)", "assay_in_all_cases": "KINOMEscan competition binding", "settings_in_all_cases": "compound 10.0 µM", "key": {"CDK8 (human)": {"target": "CDK8 (human) (UniProt P49336)"}, "PLK4 (human)": {"target": "PLK4 (human) (UniProt O00444)"}, "ERBB3 (human)": {"target": "ERBB3 (human) (UniProt P21860)"}, "STK3 (human)": {"target": "STK3 (human) (UniProt Q13188)"}, "DMPK (human)": {"target": "DMPK (human) (UniProt Q09013)"}, "MAPK6 (human)": {"target": "MAPK6 (human) (UniProt Q16659)", "sequence (Q16659 whole entry, looked up)": "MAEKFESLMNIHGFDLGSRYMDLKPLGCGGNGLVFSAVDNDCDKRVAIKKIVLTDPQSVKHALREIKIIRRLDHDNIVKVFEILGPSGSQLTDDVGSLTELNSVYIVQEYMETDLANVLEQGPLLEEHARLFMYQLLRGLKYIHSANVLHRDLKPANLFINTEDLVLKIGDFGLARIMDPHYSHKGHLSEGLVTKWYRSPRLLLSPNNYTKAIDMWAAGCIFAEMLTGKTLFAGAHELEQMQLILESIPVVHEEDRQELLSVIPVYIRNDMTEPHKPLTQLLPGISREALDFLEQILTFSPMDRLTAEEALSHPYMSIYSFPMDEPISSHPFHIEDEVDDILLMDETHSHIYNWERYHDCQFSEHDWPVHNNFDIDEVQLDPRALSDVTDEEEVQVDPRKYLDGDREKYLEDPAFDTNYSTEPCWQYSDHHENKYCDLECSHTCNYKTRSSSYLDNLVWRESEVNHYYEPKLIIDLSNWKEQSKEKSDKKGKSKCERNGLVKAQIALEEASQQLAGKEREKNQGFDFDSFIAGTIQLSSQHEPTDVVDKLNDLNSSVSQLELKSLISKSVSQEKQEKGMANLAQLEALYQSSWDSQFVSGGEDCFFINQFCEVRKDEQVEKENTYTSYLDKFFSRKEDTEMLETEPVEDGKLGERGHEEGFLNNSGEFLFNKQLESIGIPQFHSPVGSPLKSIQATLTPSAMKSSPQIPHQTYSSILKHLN"}, "[1]": {"tested_on": "PIK3CA (human), P42336 [E542K]"}, "MKNK1 (human)": {"target": "MKNK1 (human) (UniProt Q9BUB5)"}, "ROCK1 (human)": {"target": "ROCK1 (human) (UniProt Q13464)"}, "STK10 (human)": {"target": "STK10 (human) (UniProt O94804)"}, "ROCK2 (human)": {"target": "ROCK2 (human) (UniProt O75116)"}, "RPS6KA6 KD2 (human)": {"target": "RPS6KA6 KD2 (human) (UniProt Q9UK32)"}, "ADCK3 (human)": {"target": "ADCK3 (human) (UniProt Q8NI60)"}, "PAK3 (human)": {"target": "PAK3 (human) (UniProt O75914)"}, "MAP2K4 (human)": {"target": "MAP2K4 (human) (UniProt P45985)"}, "STK39 (human)": {"target": "STK39 (human) (UniProt Q9UEW8)"}, "MAP2K3 (human)": {"target": "MAP2K3 (human) (UniProt P46734)", "sequence (P46734 whole entry, looked up)": "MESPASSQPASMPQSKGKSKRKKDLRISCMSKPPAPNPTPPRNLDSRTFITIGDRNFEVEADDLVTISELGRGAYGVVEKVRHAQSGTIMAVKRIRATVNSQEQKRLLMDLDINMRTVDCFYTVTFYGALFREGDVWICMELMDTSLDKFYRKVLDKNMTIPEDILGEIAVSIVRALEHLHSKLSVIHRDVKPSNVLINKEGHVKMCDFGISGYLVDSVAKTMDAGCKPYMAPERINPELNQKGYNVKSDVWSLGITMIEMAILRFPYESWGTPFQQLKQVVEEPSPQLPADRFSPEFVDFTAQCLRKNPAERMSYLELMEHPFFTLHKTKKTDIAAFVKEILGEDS"}, "MAP3K13 (human)": {"target": "MAP3K13 (human) (UniProt O43283)", "sequence (O43283 whole entry, looked up)": "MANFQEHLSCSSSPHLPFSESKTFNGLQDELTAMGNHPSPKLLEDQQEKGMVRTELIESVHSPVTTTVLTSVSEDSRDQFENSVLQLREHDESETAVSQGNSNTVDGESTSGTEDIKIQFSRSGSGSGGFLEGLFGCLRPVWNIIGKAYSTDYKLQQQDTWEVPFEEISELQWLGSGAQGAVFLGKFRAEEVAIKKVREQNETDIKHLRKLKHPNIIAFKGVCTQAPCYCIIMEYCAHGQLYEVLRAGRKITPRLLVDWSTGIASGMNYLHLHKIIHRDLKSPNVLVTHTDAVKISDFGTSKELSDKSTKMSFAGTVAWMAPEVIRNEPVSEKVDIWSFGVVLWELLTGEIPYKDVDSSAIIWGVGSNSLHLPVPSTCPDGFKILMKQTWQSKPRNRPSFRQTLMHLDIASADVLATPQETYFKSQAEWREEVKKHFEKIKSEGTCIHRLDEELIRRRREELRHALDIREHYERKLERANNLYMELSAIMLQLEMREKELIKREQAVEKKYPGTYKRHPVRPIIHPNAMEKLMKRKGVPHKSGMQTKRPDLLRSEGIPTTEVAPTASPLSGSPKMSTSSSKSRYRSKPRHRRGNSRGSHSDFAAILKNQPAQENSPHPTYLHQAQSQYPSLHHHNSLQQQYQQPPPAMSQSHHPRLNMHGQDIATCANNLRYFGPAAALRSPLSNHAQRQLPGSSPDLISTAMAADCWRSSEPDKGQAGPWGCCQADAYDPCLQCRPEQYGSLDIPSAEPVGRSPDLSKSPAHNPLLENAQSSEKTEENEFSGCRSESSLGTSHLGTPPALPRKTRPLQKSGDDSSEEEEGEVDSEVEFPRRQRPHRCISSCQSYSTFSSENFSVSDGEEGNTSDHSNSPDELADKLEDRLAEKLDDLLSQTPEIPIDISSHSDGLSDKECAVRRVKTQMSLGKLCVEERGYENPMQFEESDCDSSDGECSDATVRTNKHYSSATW"}, "MAPKAPK5 (human)": {"target": "MAPKAPK5 (human) (UniProt Q8IW41)"}, "PAK1 (human)": {"target": "PAK1 (human) (UniProt Q13153)"}, "PTK2B (human)": {"target": "PTK2B (human) (UniProt Q14289)", "sequence (Q14289 whole entry, looked up)": "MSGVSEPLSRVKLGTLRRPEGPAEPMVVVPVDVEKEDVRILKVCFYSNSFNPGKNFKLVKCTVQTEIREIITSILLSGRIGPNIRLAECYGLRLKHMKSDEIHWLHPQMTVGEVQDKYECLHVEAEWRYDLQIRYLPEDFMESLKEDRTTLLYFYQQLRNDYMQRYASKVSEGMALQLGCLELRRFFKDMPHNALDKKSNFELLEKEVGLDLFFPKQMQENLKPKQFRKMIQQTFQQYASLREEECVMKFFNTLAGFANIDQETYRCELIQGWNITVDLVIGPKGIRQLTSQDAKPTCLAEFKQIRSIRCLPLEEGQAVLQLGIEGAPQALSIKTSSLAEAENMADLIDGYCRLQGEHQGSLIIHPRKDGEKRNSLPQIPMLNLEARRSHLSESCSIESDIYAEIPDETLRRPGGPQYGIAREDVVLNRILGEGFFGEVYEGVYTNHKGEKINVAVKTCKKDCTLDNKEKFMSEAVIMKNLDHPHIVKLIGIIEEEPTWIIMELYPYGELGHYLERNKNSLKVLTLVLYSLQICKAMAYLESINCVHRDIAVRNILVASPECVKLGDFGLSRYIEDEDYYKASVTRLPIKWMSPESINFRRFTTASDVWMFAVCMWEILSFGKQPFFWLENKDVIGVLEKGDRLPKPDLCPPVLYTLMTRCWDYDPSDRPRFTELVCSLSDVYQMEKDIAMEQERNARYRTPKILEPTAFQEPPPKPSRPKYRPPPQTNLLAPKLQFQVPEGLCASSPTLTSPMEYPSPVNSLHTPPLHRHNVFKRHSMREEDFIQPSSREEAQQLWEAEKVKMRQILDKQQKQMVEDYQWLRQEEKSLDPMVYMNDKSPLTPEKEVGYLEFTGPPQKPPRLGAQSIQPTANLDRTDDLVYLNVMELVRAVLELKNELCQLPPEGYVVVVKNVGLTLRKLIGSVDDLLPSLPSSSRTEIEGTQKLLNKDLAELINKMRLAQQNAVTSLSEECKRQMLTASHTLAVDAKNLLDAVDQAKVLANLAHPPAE"}, "MATK (human)": {"target": "MATK (human) (UniProt P42679)"}, "WEE2 (human)": {"target": "WEE2 (human) (UniProt P0C1S8)"}, "ERN1 (human)": {"target": "ERN1 (human) (UniProt O75460)"}, "[2]": {"tested_on": "FLT3 (human), P36888 [D835H]"}, "CDC42BPB (human)": {"target": "CDC42BPB (human) (UniProt Q9Y5S2)"}, "AXL (human)": {"target": "AXL (human) (UniProt P30530)"}, "GRK7 (human)": {"target": "GRK7 (human) (UniProt Q8WTQ7)"}, "[3]": {"tested_on": "MET (human), P08581 [M1250T]"}, "CLK3 (human)": {"target": "CLK3 (human) (UniProt P49761)"}, "PAK7 (human)": {"target": "PAK7 (human) (UniProt Q9P286)"}, "FLT3 (human)": {"target": "FLT3 (human) (UniProt P36888)"}, "MELK (human)": {"target": "MELK (human) (UniProt Q14680)", "sequence (Q14680 whole entry, looked up)": "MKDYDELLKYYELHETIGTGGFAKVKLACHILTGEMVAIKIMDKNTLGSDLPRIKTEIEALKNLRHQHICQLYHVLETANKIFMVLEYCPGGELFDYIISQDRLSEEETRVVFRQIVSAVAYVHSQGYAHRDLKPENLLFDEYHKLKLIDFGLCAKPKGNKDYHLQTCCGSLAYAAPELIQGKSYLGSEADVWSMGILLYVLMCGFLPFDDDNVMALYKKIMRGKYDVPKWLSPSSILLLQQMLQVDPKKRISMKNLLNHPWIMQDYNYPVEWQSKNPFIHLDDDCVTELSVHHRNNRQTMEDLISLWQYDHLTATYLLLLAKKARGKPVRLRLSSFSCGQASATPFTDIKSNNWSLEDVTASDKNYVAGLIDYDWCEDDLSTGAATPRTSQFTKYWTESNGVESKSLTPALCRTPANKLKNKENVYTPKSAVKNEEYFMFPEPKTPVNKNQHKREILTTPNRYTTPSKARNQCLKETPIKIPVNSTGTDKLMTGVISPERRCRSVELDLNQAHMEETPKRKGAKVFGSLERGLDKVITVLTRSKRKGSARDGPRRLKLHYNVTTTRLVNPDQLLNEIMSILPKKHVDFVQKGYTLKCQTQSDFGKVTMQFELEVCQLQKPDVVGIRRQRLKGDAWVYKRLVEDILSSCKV"}, "SRMS (human)": {"target": "SRMS (human) (UniProt Q9H3Y6)"}, "PDGFRA (human)": {"target": "PDGFRA (human) (UniProt P16234)"}, "CAMK1D (human)": {"target": "CAMK1D (human) (UniProt Q8IU85)", "sequence (Q8IU85 whole entry, looked up)": "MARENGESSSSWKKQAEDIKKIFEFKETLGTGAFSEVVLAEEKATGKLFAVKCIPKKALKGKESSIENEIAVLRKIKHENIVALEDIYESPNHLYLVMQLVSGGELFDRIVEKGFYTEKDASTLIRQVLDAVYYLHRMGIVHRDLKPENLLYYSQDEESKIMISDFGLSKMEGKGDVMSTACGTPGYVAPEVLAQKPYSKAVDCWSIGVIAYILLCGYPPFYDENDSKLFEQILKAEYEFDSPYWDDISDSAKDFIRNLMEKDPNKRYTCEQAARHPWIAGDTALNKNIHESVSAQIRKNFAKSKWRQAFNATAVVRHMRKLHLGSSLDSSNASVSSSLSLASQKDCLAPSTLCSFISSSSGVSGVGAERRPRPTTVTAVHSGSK"}, "[4]": {"tested_on": "ABL1 (human), P00519 [Y253F]"}, "RPS6KA4 KD2 (human)": {"target": "RPS6KA4 KD2 (human) (UniProt O75676)", "sequence (O75676 whole entry, looked up)": "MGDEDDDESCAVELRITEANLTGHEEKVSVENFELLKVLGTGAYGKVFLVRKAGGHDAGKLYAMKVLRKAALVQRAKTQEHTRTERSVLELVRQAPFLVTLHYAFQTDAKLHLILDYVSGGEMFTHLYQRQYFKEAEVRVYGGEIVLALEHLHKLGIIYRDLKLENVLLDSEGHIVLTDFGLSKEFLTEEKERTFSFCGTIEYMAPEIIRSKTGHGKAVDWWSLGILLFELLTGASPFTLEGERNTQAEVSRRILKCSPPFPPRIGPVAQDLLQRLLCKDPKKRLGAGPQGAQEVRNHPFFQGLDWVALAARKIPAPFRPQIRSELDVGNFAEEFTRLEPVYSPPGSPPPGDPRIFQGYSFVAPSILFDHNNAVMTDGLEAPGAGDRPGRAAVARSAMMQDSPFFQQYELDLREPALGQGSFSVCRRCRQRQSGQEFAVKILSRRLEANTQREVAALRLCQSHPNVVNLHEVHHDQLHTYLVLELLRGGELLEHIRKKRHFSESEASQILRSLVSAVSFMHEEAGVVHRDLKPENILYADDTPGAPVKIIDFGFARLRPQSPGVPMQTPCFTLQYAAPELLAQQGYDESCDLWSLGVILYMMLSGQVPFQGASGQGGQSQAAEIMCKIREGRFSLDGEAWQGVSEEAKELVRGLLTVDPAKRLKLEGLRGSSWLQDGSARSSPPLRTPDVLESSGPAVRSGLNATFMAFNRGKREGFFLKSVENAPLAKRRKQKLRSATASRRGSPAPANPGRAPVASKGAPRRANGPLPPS"}, "STK33 (human)": {"target": "STK33 (human) (UniProt Q9BYT3)"}, "TYRO3 (human)": {"target": "TYRO3 (human) (UniProt Q06418)"}, "CHEK1 (human)": {"target": "CHEK1 (human) (UniProt O14757)"}, "MAPK13 (human)": {"target": "MAPK13 (human) (UniProt O15264)"}}}
{"smiles": "Cc1cnc(-c2cnc(NCCNc3ccc(C#N)cn3)nc2-c2ccc(Cl)cc2Cl)[nH]1", "values": [{"measurement": "kinase still bound, per cent of control", "setting": "CDK8 (human)", "result": 100, "unit": "%"}, {"measurement": "kinase still bound, per cent of control", "setting": "PLK4 (human)", "result": 69, "unit": "%"}, {"measurement": "kinase still bound, per cent of control", "setting": "ERBB3 (human)", "result": 73, "unit": "%"}, {"measurement": "kinase still bound, per cent of control", "setting": "STK3 (human)", "result": 100, "unit": "%"}, {"measurement": "kinase still bound, per cent of control", "setting": "DMPK (human)", "result": 92, "unit": "%"}, {"measurement": "kinase still bound, per cent of control", "setting": "MAPK6 (human)", "result": 100, "unit": "%"}, {"measurement": "kinase still bound, per cent of control", "setting": "[1]", "result": 100, "unit": "%"}, {"measurement": "kinase still bound, per cent of control", "setting": "MKNK1 (human)", "result": 100, "unit": "%"}, {"measurement": "kinase still bound, per cent of control", "setting": "ROCK1 (human)", "result": 85, "unit": "%"}, {"measurement": "kinase still bound, per cent of control", "setting": "STK10 (human)", "result": 100, "unit": "%"}, {"measurement": "kinase still bound, per cent of control", "setting": "ROCK2 (human)", "result": 100, "unit": "%"}, {"measurement": "kinase still bound, per cent of control", "setting": "RPS6KA6 KD2 (human)", "result": 83, "unit": "%"}, {"measurement": "kinase still bound, per cent of control", "setting": "ADCK3 (human)", "result": 100, "unit": "%"}, {"measurement": "kinase still bound, per cent of control", "setting": "PAK3 (human)", "result": 90, "unit": "%"}, {"measurement": "kinase still bound, per cent of control", "setting": "MAP2K4 (human)", "result": 70, "unit": "%"}, {"measurement": "kinase still bound, per cent of control", "setting": "STK39 (human)", "result": 67, "unit": "%"}, {"measurement": "kinase still bound, per cent of control", "setting": "MAP2K3 (human)", "result": 87, "unit": "%"}, {"measurement": "kinase still bound, per cent of control", "setting": "MAP3K13 (human)", "result": 80, "unit": "%"}, {"measurement": "kinase still bound, per cent of control", "setting": "MAPKAPK5 (human)", "result": 96, "unit": "%"}, {"measurement": "kinase still bound, per cent of control", "setting": "PAK1 (human)", "result": 100, "unit": "%"}, {"measurement": "kinase still bound, per cent of control", "setting": "PTK2B (human)", "result": 100, "unit": "%"}, {"measurement": "kinase still bound, per cent of control", "setting": "MATK (human)", "result": 79, "unit": "%"}, {"measurement": "kinase still bound, per cent of control", "setting": "WEE2 (human)", "result": 100, "unit": "%"}, {"measurement": "kinase still bound, per cent of control", "setting": "ERN1 (human)", "result": 100, "unit": "%"}, {"measurement": "kinase still bound, per cent of control", "setting": "[2]", "result": 74, "unit": "%"}, {"measurement": "kinase still bound, per cent of control", "setting": "CDC42BPB (human)", "result": 100, "unit": "%"}, {"measurement": "kinase still bound, per cent of control", "setting": "AXL (human)", "result": 100, "unit": "%"}, {"measurement": "kinase still bound, per cent of control", "setting": "GRK7 (human)", "result": 91, "unit": "%"}, {"measurement": "kinase still bound, per cent of control", "setting": "[3]", "result": 92, "unit": "%"}, {"measurement": "kinase still bound, per cent of control", "setting": "CLK3 (human)", "result": 97, "unit": "%"}, {"measurement": "kinase still bound, per cent of control", "setting": "PAK7 (human)", "result": 100, "unit": "%"}, {"measurement": "kinase still bound, per cent of control", "setting": "FLT3 (human)", "result": 100, "unit": "%"}, {"measurement": "kinase still bound, per cent of control", "setting": "MELK (human)", "result": 40, "unit": "%"}, {"measurement": "kinase still bound, per cent of control", "setting": "SRMS (human)", "result": 95, "unit": "%"}, {"measurement": "kinase still bound, per cent of control", "setting": "PDGFRA (human)", "result": 100, "unit": "%"}, {"measurement": "kinase still bound, per cent of control", "setting": "CAMK1D (human)", "result": 100, "unit": "%"}, {"measurement": "kinase still bound, per cent of control", "setting": "[4]", "result": 100, "unit": "%"}, {"measurement": "kinase still bound, per cent of control", "setting": "RPS6KA4 KD2 (human)", "result": 80, "unit": "%"}, {"measurement": "kinase still bound, per cent of control", "setting": "STK33 (human)", "result": 100, "unit": "%"}, {"measurement": "kinase still bound, per cent of control", "setting": "TYRO3 (human)", "result": 100, "unit": "%"}, {"measurement": "kinase still bound, per cent of control", "setting": "CHEK1 (human)", "result": 100, "unit": "%"}, {"measurement": "kinase still bound, per cent of control", "setting": "MAPK13 (human)", "result": 100, "unit": "%"}]}
{"smiles": "COc1ccc(CNC(=O)Nc2ncc([N+](=O)[O-])s2)cc1", "values": [{"measurement": "kinase still bound, per cent of control", "setting": "CDK8 (human)", "result": 100, "unit": "%"}, {"measurement": "kinase still bound, per cent of control", "setting": "PLK4 (human)", "result": 99, "unit": "%"}, {"measurement": "kinase still bound, per cent of control", "setting": "ERBB3 (human)", "result": 73, "unit": "%"}, {"measurement": "kinase still bound, per cent of control", "setting": "STK3 (human)", "result": 3.4, "unit": "%"}, {"measurement": "kinase still bound, per cent of control", "setting": "DMPK (human)", "result": 100, "unit": "%"}, {"measurement": "kinase still bound, per cent of control", "setting": "MAPK6 (human)", "result": 100, "unit": "%"}, {"measurement": "kinase still bound, per cent of control", "setting": "[1]", "result": 100, "unit": "%"}, {"measurement": "kinase still bound, per cent of control", "setting": "MKNK1 (human)", "result": 100, "unit": "%"}, {"measurement": "kinase still bound, per cent of control", "setting": "ROCK1 (human)", "result": 61, "unit": "%"}, {"measurement": "kinase still bound, per cent of control", "setting": "STK10 (human)", "result": 100, "unit": "%"}, {"measurement": "kinase still bound, per cent of control", "setting": "ROCK2 (human)", "result": 100, "unit": "%"}, {"measurement": "kinase still bound, per cent of control", "setting": "ADCK3 (human)", "result": 100, "unit": "%"}, {"measurement": "kinase still bound, per cent of control", "setting": "PAK3 (human)", "result": 90, "unit": "%"}, {"measurement": "kinase still bound, per cent of control", "setting": "MAP2K4 (human)", "result": 79, "unit": "%"}, {"measurement": "kinase still bound, per cent of control", "setting": "STK39 (human)", "result": 100, "unit": "%"}, {"measurement": "kinase still bound, per cent of control", "setting": "MAP2K3 (human)", "result": 100, "unit": "%"}, {"measurement": "kinase still bound, per cent of control", "setting": "MAP3K13 (human)", "result": 70, "unit": "%"}, {"measurement": "kinase still bound, per cent of control", "setting": "MAPKAPK5 (human)", "result": 100, "unit": "%"}, {"measurement": "kinase still bound, per cent of control", "setting": "PAK1 (human)", "result": 94, "unit": "%"}, {"measurement": "kinase still bound, per cent of control", "setting": "PTK2B (human)", "result": 100, "unit": "%"}, {"measurement": "kinase still bound, per cent of control", "setting": "MATK (human)", "result": 95, "unit": "%"}, {"measurement": "kinase still bound, per cent of control", "setting": "WEE2 (human)", "result": 100, "unit": "%"}, {"measurement": "kinase still bound, per cent of control", "setting": "ERN1 (human)", "result": 100, "unit": "%"}, {"measurement": "kinase still bound, per cent of control", "setting": "[2]", "result": 99, "unit": "%"}, {"measurement": "kinase still bound, per cent of control", "setting": "CDC42BPB (human)", "result": 75, "unit": "%"}, {"measurement": "kinase still bound, per cent of control", "setting": "AXL (human)", "result": 100, "unit": "%"}, {"measurement": "kinase still bound, per cent of control", "setting": "GRK7 (human)", "result": 100, "unit": "%"}, {"measurement": "kinase still bound, per cent of control", "setting": "[3]", "result": 93, "unit": "%"}, {"measurement": "kinase still bound, per cent of control", "setting": "PAK7 (human)", "result": 96, "unit": "%"}, {"measurement": "kinase still bound, per cent of control", "setting": "FLT3 (human)", "result": 86, "unit": "%"}, {"measurement": "kinase still bound, per cent of control", "setting": "MELK (human)", "result": 63, "unit": "%"}, {"measurement": "kinase still bound, per cent of control", "setting": "SRMS (human)", "result": 75, "unit": "%"}, {"measurement": "kinase still bound, per cent of control", "setting": "PDGFRA (human)", "result": 100, "unit": "%"}, {"measurement": "kinase still bound, per cent of control", "setting": "CAMK1D (human)", "result": 100, "unit": "%"}, {"measurement": "kinase still bound, per cent of control", "setting": "[4]", "result": 100, "unit": "%"}, {"measurement": "kinase still bound, per cent of control", "setting": "RPS6KA4 KD2 (human)", "result": 85, "unit": "%"}, {"measurement": "kinase still bound, per cent of control", "setting": "STK33 (human)", "result": 75, "unit": "%"}, {"measurement": "kinase still bound, per cent of control", "setting": "TYRO3 (human)", "result": 93, "unit": "%"}, {"measurement": "kinase still bound, per cent of control", "setting": "CHEK1 (human)", "result": 100, "unit": "%"}, {"measurement": "kinase still bound, per cent of control", "setting": "MAPK13 (human)", "result": 94, "unit": "%"}]}
